These results are taken from PubChem BioAssay AID256 (DTP/NCI, 2004).

The assay concerns CD2F1 mice, L1210 leukemia ip, survival T/C. Briefly: NCI In Vivo Anticancer Drug Screen. Data for tumor model L1210 Leukemia (intraperitoneal) in CD2F1 (CDF1) mice. As to conditions: higher = longer survival. Put shortly: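 Each value reflects a quotient of treated over vehicle control outcomes in mice with a transplanted tumor.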
Setting [1] is: endpoint: mean survival time, dose: 6.25 mg/kg/injection, schedule: Q01DX009 (ip), vehicle: saline with Tween-80.
The mark [2] stands for this setting: endpoint: mean survival time, dose: 12.5 mg/kg/injection, schedule: Q01DX009 (ip), vehicle: saline with Tween-80.
Setting [3] is: endpoint: mean survival time, dose: 25.0 mg/kg/injection, schedule: Q01DX009 (ip), vehicle: saline with Tween-80.
The mark [4] stands for this setting: endpoint: mean survival time, dose: 50.0 mg/kg/injection, schedule: Q01DX009 (ip), vehicle: saline with Tween-80.
Where [5] appears, read: endpoint: mean survival time, dose: 100.0 mg/kg/injection, schedule: Q01DX009 (ip), vehicle: saline with Tween-80.
[6] abbreviates: endpoint: mean survival time, dose: 100.0 mg/kg/injection, schedule: Q04DX003 (ip), vehicle: saline.
Setting [7] is: endpoint: mean survival time, dose: 100.0 mg/kg/injection, schedule: Q04DX003 (ip), vehicle: saline with Tween-80.
The mark [8] stands for this setting: endpoint: mean survival time, dose: 200.0 mg/kg/injection, schedule: Q01DX009 (ip), vehicle: saline with Tween-80.
Where [9] appears, read: endpoint: mean survival time, dose: 200.0 mg/kg/injection, schedule: Q04DX003 (ip), vehicle: saline with Tween-80.
[10] abbreviates: endpoint: mean survival time, dose: 400.0 mg/kg/injection, schedule: Q04DX003 (ip), vehicle: saline with Tween-80.

Where “and” joins values, the source holds several entries; their conditions need not be identical. Equal values may be shown once. Toxic doses and inconclusive results are not listed.

As to `CS(=O)(=O)c1ncc(Br)cn1`, the T/C (endpoint: mean survival time, dose: 3.12 mg/kg/injection, schedule: Q01DX009 (ip), vehicle: saline with Tween-80) was 101 % of control; the T/C (endpoint: mean survival time, dose: 3.13 mg/kg/injection, schedule: Q01DX009 (ip), vehicle: saline with Tween-80) is 101 % of control; the T/C under setting [1] is 101 % of control and 106 % of control; the T/C under setting [2] was 101 % of control and 102 % of control; the T/C under setting [3] is 95 % of control and 107 % of control; the T/C under setting [4] is 103 % of control and 104 % of control. The T/C under setting [5] is 104 % of control and 108 % of control.

With `CCCC(C)(C)OC(=O)c1ccc([N+](=O)[O-])cc1`, the T/C is 96 % of control (endpoint: mean survival time, dose: 100.0 mg/kg/injection, schedule: Q01DX001 (ip), vehicle: saline); 98 % of control (endpoint: mean survival time, dose: 200.0 mg/kg/injection, schedule: Q01DX001 (ip), vehicle: saline); 100 % of control (endpoint: mean survival time, dose: 400.0 mg/kg/injection, schedule: Q01DX001 (ip), vehicle: saline).

For `C/C=C/C(=O)NCC(C(C)C)/[N+]([O-])=N/O` (centres undefined), the T/C under setting [1] was 94 % of control, the T/C under setting [2] was 103 % of control and the T/C under setting [3] is 94 % of control.

Regarding `CS(C)=O.CS(C)=O.[Cl][Rh]([Cl])([Cl])[Cl]`, the T/C was 111 % of control (endpoint: mean survival time, dose: 12.5 mg/kg/injection, schedule: Q01DX009 (ip), vehicle: saline); 100 % of control (endpoint: mean survival time, dose: 12.5 mg/kg/injection, schedule: Q04DX003 (ip), vehicle: saline); 117 % of control (endpoint: mean survival time, dose: 25.0 mg/kg/injection, schedule: Q01DX009 (ip), vehicle: saline); 98 % of control (endpoint: mean survival time, dose: 25.0 mg/kg/injection, schedule: Q04DX003 (ip), vehicle: saline); 119 % of control (endpoint: mean survival time, dose: 50.0 mg/kg/injection, schedule: Q01DX009 (ip), vehicle: saline); 100 % of control (endpoint: mean survival time, dose: 50.0 mg/kg/injection, schedule: Q04DX003 (ip), vehicle: saline). Also, the T/C under setting [6] is 117 % of control.

Consider `CC(O)C(=O)Oc1ccccc1` (centres undefined), for which the T/C (endpoint: mean survival time, dose: 50.0 mg/kg/injection, schedule: Q01DX009 (ip), vehicle: other) is 92 % of control; the T/C (endpoint: mean survival time, dose: 100.0 mg/kg/injection, schedule: Q01DX009 (ip), vehicle: other) was 100 % of control; the T/C (endpoint: mean survival time, dose: 200.0 mg/kg/injection, schedule: Q01DX009 (ip), vehicle: other) was 102 % of control.

For `NCc1ccc([N+](=O)[O-])cc1Cl`, the T/C reads like this: under setting [4], 94 % of control; under setting [5], 94 % of control.

Consider `Cc1ccc(NC(=O)CCl)cc1C`, for which the T/C by setting is: under setting [5], 100 % of control; under setting [7], 96 % of control; under setting [8], 97 % of control; under setting [9], 95 % of control; under setting [10], 93 % of control.

As for `C=C(C)C12CC(COC(=O)c3ccccc3)C34OC5(OC1C3C1OC1(COC(=O)CCCCCCCCCCCCCCC)C(O)C1(O)C(OC(=O)c3ccccc3)C(C)C(C(C)CCCCCCC5O)C14)O2` (centres undefined), the T/C (endpoint: mean survival time, dose: 6.3 micrograms/kg/injection, schedule: Q01DX009 (ip), vehicle: saline) was 107 % of control; the T/C (endpoint: mean survival time, dose: 12.5 micrograms/kg/injection, schedule: Q01DX009 (ip), vehicle: saline) is 103 % of control; the T/C (endpoint: mean survival time, dose: 25.0 micrograms/kg/injection, schedule: Q01DX009 (ip), vehicle: saline) was 102 % of control; the T/C (endpoint: mean survival time, dose: 50.0 micrograms/kg/injection, schedule: Q01DX009 (ip), vehicle: saline) was 105 % of control.

`OCC1OC(c2cnn(-c3ccccc3)n2)C(O)C1O` (centres undefined): the T/C is 103 % of control (endpoint: median survival time, dose: 12.5 mg/kg/injection, schedule: Q01DX005 (ip), vehicle: water); 103 % of control (endpoint: median survival time, dose: 25.0 mg/kg/injection, schedule: Q01DX005 (ip), vehicle: water); 102 % of control (endpoint: median survival time, dose: 50.0 mg/kg/injection, schedule: Q01DX005 (ip), vehicle: water); 104 % of control (endpoint: median survival time, dose: 100.0 mg/kg/injection, schedule: Q01DX005 (ip), vehicle: water); 102 % of control (endpoint: median survival time, dose: 200.0 mg/kg/injection, schedule: Q01DX005 (ip), vehicle: water).

As to `Nc1n[nH]c(=S)n1-c1ccc(Cl)cc1`, the T/C (endpoint: mean survival time, dose: 100.0 mg/kg/injection, schedule: Q01DX009 (ip), vehicle: acetone) was 97 % of control; the T/C (endpoint: mean survival time, dose: 200.0 mg/kg/injection, schedule: Q01DX009 (ip), vehicle: acetone) was 101 % of control; the T/C (endpoint: mean survival time, dose: 400.0 mg/kg/injection, schedule: Q01DX009 (ip), vehicle: acetone) was 106 % of control.

On to `Cc1ccnc(-n2c(N)cc(=O)[nH]c2=S)c1`, for which the T/C under setting [7] was 97 % of control, the T/C under setting [9] was 97 % of control and the T/C under setting [10] was 96 % of control.

For `O=S(=O)(Nc1cccc(NS(=O)(=O)c2ccccc2)n1)c1ccccc1`, the T/C under setting [7] is 92 % of control, the T/C under setting [9] is 102 % of control and the T/C under setting [10] was 92 % of control.

With `CN=NNc1ccccc1`, the T/C reads like this: (endpoint: mean survival time, dose: 75.0 mg/kg/injection, schedule: Q01DX001 (ip), vehicle: saline) 117 % of control; (endpoint: mean survival time, dose: 75.0 mg/kg/injection, schedule: Q04DX003 (ip), vehicle: saline with Tween-80) 122 % of control; under setting [7], 119 % of control; (endpoint: mean survival time, dose: 150.0 mg/kg/injection, schedule: Q04DX003 (ip), vehicle: saline with Tween-80) 153 % of control; (endpoint: mean survival time, dose: 225.0 mg/kg/injection, schedule: Q04DX003 (ip), vehicle: saline with Tween-80) 86 % of control.

In the case of `Cc1cc(=O)n(C)c2ccccc12`, the T/C by setting is: (endpoint: mean survival time, dose: 50.0 mg/kg/injection, schedule: Q04DX003 (ip), vehicle: saline with Tween-80) 95 % of control; under setting [7], 103 % of control; under setting [9], 97 % of control.

As to `Cc1ccc(NC(=O)OCCSc2ccc(Cl)cc2)cc1C`, the T/C is, setting by setting: under setting [4], 96 % of control; under setting [5], 92 % of control.

As to `CNC(=O)NC1CCC(C)CC1` (centres undefined), the T/C is, setting by setting: under setting [6], 98 % of control; (endpoint: mean survival time, dose: 200.0 mg/kg/injection, schedule: Q04DX003 (ip), vehicle: saline) 96 % of control; (endpoint: mean survival time, dose: 400.0 mg/kg/injection, schedule: Q04DX003 (ip), vehicle: saline) 96 % of control.

With `O=C(Nc1ccccc1)c1ccc(S(=O)(=O)F)cc1`, the T/C runs as follows: under setting [5], 101 % of control; under setting [8], 106 % of control; (endpoint: mean survival time, dose: 400.0 mg/kg/injection, schedule: Q01DX009 (ip), vehicle: saline with Tween-80) 106 % of control.
